Measured values: ChEMBL document CHEMBL1132922, “Corticotropin releasing factor (CRF) receptor modulators: progress and opportunities for new therapeutic agents” (J Med Chem, 2000)
Residues, ends and D or L forms follow the SMILES beside them.

Assays:
[1] = target: T1, Corticotropin releasing factor receptor (Rattus norvegicus, UniProt P47866+P35353); assay: (§1) Compound was tested for the binding affinity to rat corticotropin releasing factor receptor; assay type: protein assay
[2] = target: T2, Corticotropin-releasing factor receptor 1 (Homo sapiens, UniProt P34998); assay: Activity of peptidic agonists on corticotropin releasing factor receptor using agonist-stimulated adenylate cyclase assay; assay type: functional
T2 sequence (P34998 whole entry): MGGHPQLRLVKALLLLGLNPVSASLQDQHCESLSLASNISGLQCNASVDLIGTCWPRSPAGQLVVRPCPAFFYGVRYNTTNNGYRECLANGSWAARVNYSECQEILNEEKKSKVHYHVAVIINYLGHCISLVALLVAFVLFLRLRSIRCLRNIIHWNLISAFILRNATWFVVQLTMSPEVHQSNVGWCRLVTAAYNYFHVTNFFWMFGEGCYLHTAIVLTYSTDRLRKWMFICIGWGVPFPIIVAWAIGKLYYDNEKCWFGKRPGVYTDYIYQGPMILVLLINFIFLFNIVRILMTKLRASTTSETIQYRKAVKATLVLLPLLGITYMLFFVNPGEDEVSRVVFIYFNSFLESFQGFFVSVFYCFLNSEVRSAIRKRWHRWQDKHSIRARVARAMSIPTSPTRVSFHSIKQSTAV

[3] = target: T2, Corticotropin-releasing factor receptor 1; assay: Binding affinity of the receptor corticotropin releasing factor receptor with peptidic agonists
[4] = target: T3, Corticotropin-releasing factor receptor 2 (Homo sapiens, UniProt Q13324); assay: Activity of peptidic agonists on h-CRF2-alpha receptor using agonist-stimulated adenylate cyclase assay; assay type: functional
T3 sequence (Q13324 whole entry): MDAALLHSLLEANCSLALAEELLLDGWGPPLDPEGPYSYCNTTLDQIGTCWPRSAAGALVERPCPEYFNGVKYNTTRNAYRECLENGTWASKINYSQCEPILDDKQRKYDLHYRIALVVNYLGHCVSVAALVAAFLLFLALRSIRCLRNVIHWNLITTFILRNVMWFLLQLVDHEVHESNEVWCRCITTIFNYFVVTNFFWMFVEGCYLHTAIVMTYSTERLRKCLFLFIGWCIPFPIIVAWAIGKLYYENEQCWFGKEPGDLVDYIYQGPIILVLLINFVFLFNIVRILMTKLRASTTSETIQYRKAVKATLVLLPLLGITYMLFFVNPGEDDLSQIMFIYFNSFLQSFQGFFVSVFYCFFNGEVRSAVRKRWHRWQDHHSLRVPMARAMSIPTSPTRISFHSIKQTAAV

[5] = target: T3, Corticotropin-releasing factor receptor 2; assay: Binding affinity of the receptor h-CRF2-alpha with peptidic agonists
[6] = target: T2, Corticotropin-releasing factor receptor 1; assay: Compound was tested for the binding affinity to human corticotropin releasing factor 1 (hCRF1) receptors.
[7] = target: T1, Corticotropin releasing factor receptor; assay: as §1; assay type: protein assay; remark: listed apart in the source
[8] = target: T2, Corticotropin-releasing factor receptor 1; assay: Effective concentration to stimulate the human corticotropin releasing factor receptor using agonist-stimulated adenylate cyclase assay; assay type: functional
[9] = target: T1, Corticotropin releasing factor receptor; assay: Compound was tested for the inhibition of binding of the radioligand, [125 I-Tyr0]-CRF to rat cerebral cortex membrane; assay type: tissue-based
Rattus norvegicus = species on record: Rattus norvegicus; assay: 50% inhibitory concentration to antagonize Corticotropin releasing factor (CRF) stimulated adenylate cyclase; assay type: functional

## CCCCN(CC)c1nc(C)nc2c1c(C)c(C)n2-c1c(C)cc(C)cc1C [ANTALARMIN]
[1]
  Ki: 1 nM

## CC[C@H](C)[C@H](NC(=O)[C@@H](NC(=O)[C@H](CC(=O)O)NC(=O)[C@H](CC(C)C)NC(=O)[C@H](CC(C)C)NC(=O)[C@H](CC(C)C)NC(=O)[C@H](CCCN=C(N)N)NC(=O)[C@H](CC(N)=O)NC(=O)[C@H](CC(N)=O)NC(=O)[C@H](C)NC(=O)[C@H](C)NC(=O)[C@H](CCC(N)=O)NC(=O)[C@H](CCC(N)=O)NC(=O)[C@H](CCCCN)NC(=O)[C@H](CCC(=O)O)NC(=O)[C@H](CCCCN)NC(=O)[C@H](CCC(=O)O)NC(=O)[C@H](CCC(N)=O)NC(=O)[C@H](CCCCN)NC(=O)[C@H](CCC(=O)O)NC(=O)[C@@H](NC(=O)[C@H](CCC(=O)O)NC(=O)[C@@H](NC(=O)[C@H](CCSC)NC(=O)[C@H](CCCCN)NC(=O)[C@H](CCCN=C(N)N)NC(=O)[C@H](CC(C)C)NC(=O)[C@H](CC(C)C)NC(=O)[C@H](CCC(=O)O)NC(=O)[C@H](CC(C)C)NC(=O)[C@H](CO)NC(=O)[C@H](CC(C)C)NC(=O)[C@H](CC(=O)O)NC(=O)[C@@H](NC(=O)[C@H](CO)NC(=O)[C@@H](NC(=O)[C@@H]1CCCN1C(=O)[C@@H]1CCCN1C(=O)CNC(=O)[C@@H](N)CCC(N)=O)[C@@H](C)CC)[C@@H](C)CC)[C@@H](C)CC)[C@@H](C)CC)[C@@H](C)O)C(N)=O
[2]
  EC50: 3.4 nM
[3]
  Ki: 7.3 nM
[4]
  EC50: 1.4 nM
[5]
  Ki: 2.73 nM

## H-NDDPPISIDLTFHLLRNMIEMARIENEREQAGLNRKYLDEV-NH2
[2]
  EC50: 6.3 nM
[3]
  Ki: 1.07 nM
[4]
  EC50: 1.5 nM
[5]
  Ki: 1.26 nM

## CCC(CC)n1nnc2c(N3CCc4cc(Cl)cc(Cl)c43)nc(C)cc21
[6]
  Ki: 1.3 nM

## CCc1nc2c(c(C)nn2-c2ccc(C(C)C)cc2Br)n1Cc1ccccc1
[7]
  Ki: 4 nM

## CC[C@H](C)[C@H](NC(=O)[C@@H](NC(=O)[C@H](CC(=O)O)NC(=O)[C@H](CC(C)C)NC(=O)[C@H](CC(C)C)NC(=O)[C@H](CC(C)C)NC(=O)[C@H](CCCNC(=N)N)NC(=O)[C@H](CC(N)=O)NC(=O)[C@H](CC(N)=O)NC(=O)[C@H](C)NC(=O)[C@H](C)NC(=O)[C@H](CCC(N)=O)NC(=O)[C@H](CCC(N)=O)NC(=O)[C@H](CCCCN)NC(=O)[C@H](CCC(=O)O)NC(=O)[C@H](CCCCN)NC(=O)[C@H](CCC(=O)O)NC(=O)[C@H](CCC(N)=O)NC(=O)[C@H](CCCCN)NC(=O)[C@H](CCC(=O)O)NC(=O)[C@@H](NC(=O)[C@H](CCC(=O)O)NC(=O)[C@@H](NC(=O)[C@H](CCSC)NC(=O)[C@H](CCCCN)NC(=O)[C@H](CCCNC(=N)N)NC(=O)[C@H](CC(C)C)NC(=O)[C@H](CC(C)C)NC(=O)[C@H](Cc1c[nH]cn1)NC(=O)[C@H](N)Cc1ccccc1)[C@@H](C)CC)[C@@H](C)CC)[C@@H](C)O)C(N)=O
[8]
  EC50: 3760 nM

## CCN(c1nc(C)cc(N2CC=C(c3cccc(F)c3)CC2)n1)c1ccc(C(C)C)cc1Br
[9]
  IC50: 22.1 nM

## Cc1cc(C)nc(N(C)c2ccccc2Br)n1
Rattus norvegicus
  IC50: 20000 nM

## CCCN(CCOC)c1cc(C)nc2c(-c3ccc(OC)c(OC)c3)c(C)nn12
[6]
  Ki: 13.7 nM

## CC[C@H](C)[C@H](NC(=O)[C@H](CO)NC(=O)[C@H](CC(C)C)NC(=O)[C@H](CO)NC(=O)[C@@H]1CCCN1C(=O)[C@H](CC(N)=O)NC(=O)[C@@H](N)CC(=O)O)C(=O)N[C@@H](CC(=O)O)C(=O)N[C@@H](CC(C)C)C(=O)N[C@H](C(=O)N[C@@H](Cc1ccccc1)C(=O)N[C@@H](Cc1cnc[nH]1)C(=O)N[C@@H](CC(C)C)C(=O)N[C@@H](CC(C)C)C(=O)N[C@@H](CCCNC(=N)N)C(=O)N[C@H](C(=O)N[C@@H](CC(C)C)C(=O)N[C@@H](CC(C)C)C(=O)N[C@@H](CCC(=O)O)C(=O)N[C@@H](CC(C)C)C(=O)N[C@@H](C)C(=O)N[C@@H](CCCNC(=N)N)C(=O)N[C@H](C(=O)N[C@@H](CCC(N)=O)C(=O)N[C@@H](CO)C(=O)N[C@@H](CCC(N)=O)C(=O)N[C@@H](CCCNC(=N)N)C(=O)N[C@@H](CCC(=O)O)C(=O)N[C@@H](CCCNC(=N)N)C(=O)N[C@@H](C)C(=O)N[C@@H](CCC(=O)O)C(=O)N[C@@H](CCC(N)=O)C(=O)N[C@@H](CC(N)=O)C(=O)N[C@@H](CCCNC(=N)N)C(=O)N[C@H](C(=O)N[C@H](C(=O)N[C@@H](Cc1ccccc1)C(=O)N[C@@H](CC(=O)O)C(=O)N[C@@H](CO)C(=O)N[C@H](C(N)=O)C(C)C)[C@@H](C)CC)[C@@H](C)CC)[C@@H](C)O)[C@@H](C)O)[C@@H](C)O (H-DNPSLSIDLTFHLLRTLLELARTQSQRERAEQNRIIFDSV-NH2)
[2]
  EC50: 0.22 nM
[3]
  Ki: 3.76 nM
[4]
  EC50: 0.32 nM
[5]
  Ki: 3.6 nM
